# Source: patent publication US5563176A (priority 1994, dated 1996)
# Read-outs that look alike come from different tables or passages of the source.
# Key:
# HL60 cells (myeloid) = experiment: cells; type: cell-based, human; settings: Homo sapiens, HL-60, 2 h
# 8392 cells (B-cell) = experiment: cells; type: cell-based; settings: 2 h
# 8402, T-cell = experiment: inhibition of thymidine incorporation after two hour exposure, 8402; type: cell-based; settings: 2 h, Table 1, 8402, two hour exposure
# Description: (§1) To assess cytotoxic effects, various concentrations of illudins were added to cultures of cells for 48 hours, then cell growth/viability was determined by trypan blue exclusion. As an alternative to 48 hour continuous exposure studies, cells were plated in liquid culture in 96 well plates, exposed to various concentrations of illudins for 2 hours, pulsed with [^3 H]-thymidine for one to two hours and harvested onto glass filters. The filter papers were added to vials containing scintillation fluid and residual radioactivity determined in a beta (scintillation) counter.
# (§2) two hour exposure to the toxins (N - 3).
# 242, melanoma = experiment: inhibition of thymidine incorporation after two hour exposure, 242; type: cell-based; settings: 2 h; Table 1; 242, two hour exposure
# Description: as §1, §2
# 547, ovarian = experiment: inhibition of thymidine incorporation after two hour exposure, 547; type: cell-based; settings: 2 h; Table 1; 547, two hour exposure
# Description: as §1, §2
# SL-2, murine (thymic) = experiment: inhibition of thymidine incorporation after two hour exposure, SL-2; type: cell-based; settings: Mus musculus, 2 h; Table 1; SL-2, two hour exposure
# Description: as §1, §2
# MCF-7, breast = experiment: cells; type: cell-based, human
# MDA-231, breast = experiment: cells; type: cell-based
# MV522 cells = experiment: cells; type: cell-based, human; settings: Homo sapiens, MV522, 2 h, read-out: Two hour IC50
# CEM parent cells = experiment: sensitivity of mdr lines, CEM parent; type: cell-based
# CEM VM-1 variant cells = experiment: sensitivity of mdr lines, CEM VM-1; type: cell-based; settings: Homo sapiens, CEM-VM1
# CEM AraC variant cells = experiment: sensitivity of mdr lines, CEM AraC; type: cell-based
# [1] = tested on: CEM VLB100 (gp170+) variant cells; experiment: sensitivity of mdr lines, CEM VLB100; type: cell-based
# [2] = tested on: CEM Dox (gp170+) variant cells; experiment: sensitivity of mdr lines, CEM Dox; type: cell-based
# [3] = tested on: MDA-231 parent (Breast) cells; experiment: sensitivity of mdr lines, MDA-231 parent; type: cell-based; settings: Homo sapiens, MDA-MB-231
# [4] = tested on: MDA-231 3-1 (gp170+) cells; experiment: sensitivity of mdr lines, MDA-231 3-1; type: cell-based; settings: Homo sapiens, MDA-MB-231
# [5] = tested on: MCF7-wt parent (Breast) cells; experiment: sensitivity of mdr lines, MCF7-wt parent; type: cell-based; settings: Homo sapiens
# [6] = tested on: MCF7 ADR (GSH-transferase) cells; experiment: cells; type: cell-based; settings: Homo sapiens
# HL-60 parent cells = experiment: sensitivity of mdr lines, HL-60 parent; type: cell-based; settings: Homo sapiens
# HL-60 ADR (gp150+) cells = experiment: sensitivity of mdr lines, HL-60 ADR; type: cell-based; settings: Homo sapiens, HL60/ADR
# KB parent cells = experiment: sensitivity of mdr lines, KB parent; type: cell-based
# KB C-1 (gp170+) cells = experiment: sensitivity of mdr lines, KB C-1; type: cell-based; settings: KBC-1
# KB VBL (gp170+) cells = experiment: sensitivity of mdr lines, KB VBL; type: cell-based
# L1210 parent cells = experiment: sensitivity of mdr lines, L1210 parent; type: cell-based; settings: Mus musculus
# [7] = tested on: L1210 DDPt (cis-plat) cells; experiment: sensitivity of mdr lines, L1210 DDPt; type: cell-based; settings: Mus musculus
# L1210 BCNU cells = experiment: sensitivity of mdr lines, L1210 BCNU; type: cell-based; settings: Mus musculus
# [8] = tested on: L1210 PAM (melphalan) cells; experiment: sensitivity of mdr lines, L1210 PAM; type: cell-based; settings: Mus musculus
# [9] = tested on: L1210 CPA (cyclophos) cells; experiment: sensitivity of mdr lines, L1210 CPA; type: cell-based; settings: Mus musculus
# HL-60 cells = experiment: cells; type: cell-based, human; settings: Homo sapiens, HL-60
# HL60 cells = experiment: cells; type: cell-based; settings: Homo sapiens, HL-60, 48 h, read-out: 48 hour IC50
# 8392 cells = experiment: cells; type: cell-based; settings: 48 h, read-out: 48 hour IC50
# MV522 = experiment: cells; type: cell-based; settings: Homo sapiens, MV522, 48 h, read-out: 48 hour IC50
# [10] = tested on: Molt-4 (human T-cell leukemia) xenograft; experiment: Molt-4 xenograft in athymic Balb/c nu/nu mice; type: in vivo; settings: Molt-4, athymic mice; FIG. 4
# C1498 cells = experiment: C1498 syngeneic mouse AML model, increased life span; type: in vivo
# Description: In collaboration, the in vivo effects of dehydroilludin M was again studied. Initially the compound was studied against L1210 cells. […] The dehydroilludin M was then administered as a 24 hour infusion (5.0 mg/kg); the ILS was 11%. After we became aware of the presence of the energy-dependent uptake in human myelocytic cells, dehydroilludin M was screened for in vivo […], produced an ILS of 35%.
# [11] = tested on: human lung adenocarcinoma MV522; settings: in vivo
# [12] = tested on: human lung adenocarcinoma MV522; experiment: animal or person; settings: MV522, ip, read-out: life span
# Go = experiment: zone of inhibition, Go
# Colon 38 = experiment: zone of inhibition, Colon 38
# CFU-GM = experiment: colony formation zone size, CFU-GM; settings: CFU-GM
# L1210 = experiment: zone of inhibition / colony formation, L1210
smiles,measurement,setting,value
CC1=C2C(=C[C@@](C)(CO)C2O)C(=O)[C@](C)(O)C12CC2 (stereo partly shown) [Illudin S],IC50,HL60 cells (myeloid),7 ± 1 nM
same,IC50,HL60 cells (myeloid); read-out: Two hour IC50,10 ± 1 nM
same,IC50,8392 cells (B-cell),236 ± 31 nM
same,IC50,8392 cells (B-cell); read-out: Two hour IC50,236 ± 2 nM
same,IC50,"8402, T-cell",669 ± 196 nM
same,IC50,"242, melanoma",607 ± 70 nM
same,IC50,"547, ovarian",607 ± 110 nM
same,IC50,"SL-2, murine (thymic)",142 ± 15 nM
same,sensitivity to illudin S,"MCF-7, breast",markedly sensitive
same,IC50,"MCF-7, breast; Homo sapiens, MCF7, 2 h",58 ± 5 nM
same,sensitivity to illudin S,"MDA-231, breast",markedly sensitive
same,IC50,"MDA-231, breast; Homo sapiens, MDA-MB-231, 2 h",2 ± 0.2 nM
same,IC50,MV522 cells,19 ± 6 nM
same,IC50,CEM parent cells,8.3 ± 2.6 nM
same,IC50,CEM VM-1 variant cells,16.2 ± 6.4 nM
same,IC50,CEM AraC variant cells,14 nM
same,IC50,[1],3.7 ± 0.7 nM
same,IC50,[2],14 nM
same,IC50,[3],0.85 ± 0.23 nM
same,IC50,[4],0.89 ± 0.38 nM
same,IC50,"[5]; MCF7-wt Parent, read-out: Sensitivity of mdr lines",0.88 ± 0.11 nM
same,IC50,"[5]; MCF7-wt, read-out: parent IC50",0.88 nM
same,IC50,"[6]; NCI/ADR-RES, read-out: Sensitivity of mdr lines",3.7 ± 0.4 nM
same,IC50,[6]; read-out: daughter line IC50,3.7 nM
same,IC50,HL-60 parent cells,3.1 ± 1.1 nM
same,IC50,HL-60 ADR (gp150+) cells,1.9 ± 0.8 nM
same,IC50,KB parent cells,0.58 ± 0.12 nM
same,IC50,KB C-1 (gp170+) cells,0.69 ± 0.15 nM
same,IC50,KB VBL (gp170+) cells,0.69 ± 0.11 nM
same,IC50,L1210 parent cells,0.42 ± 0.08 nM
same,IC50,[7],0.46 ± 0.12 nM
same,IC50,L1210 BCNU cells,0.58 ± 0.08 nM
same,IC50,[8],0.62 ± 0.15 nM
same,IC50,[9],0.46 ± 0.12 nM
same,IC50,HL-60 cells,10 nM
same,IC50,HL60 cells,10 ± 1 nM
same,IC50,8392 cells,8 ± 2 nM
same,IC50,MV522,4 ± 1 nM
same,tumor growth,[10],tumor growth delay
same,ILS,C1498 cells; 2.5 mg/kg IP once a day for 5 days,44%
same,ILS,"C1498 cells; single bolus, 2.5 mg/kg IP",35%
same,life span versus control,[11],no significant increase in the life span
same,response vs control in vivo at 0.25 mg/kg,[12],104 ± 20%
same,response vs control in vivo at 2.5 mg/kg,[12],< 26%
same,Zone of Inhibition,Go; 0.63 ug/disc,3
same,Zone of Inhibition,Go; 1.25 ug/disc,70
same,Zone of Inhibition,Go; 2.50 ug/disc,240
same,Zone of Inhibition,"Colon 38; Colon 38, 0.63 ug/disc",0
same,Zone of Inhibition,"Colon 38; Colon 38, 1.25 ug/disc",0
same,Zone of Inhibition,"Colon 38; Colon 38, 2.50 ug/disc",30
same,Zone Size,"CFU-GM; dilution 1/1,000",400
same,Zone Size,"CFU-GM; dilution 1/4,000",200
same,Zone Size,"CFU-GM; dilution 1/16,000",0
same,Zone Size,"CFU-GM; dilution 1/64,000",0
same,Zone of Inhibition,"L1210; L1210, 0.63 ug/disc",320
same,Zone of Inhibition,"L1210; L1210, 1.25 ug/disc",400
same,Zone of Inhibition,"L1210; L1210, 2.50 ug/disc",500
same,Zone Size,"L1210; L1210, dilution 1/1,000",850
same,Zone Size,"L1210; L1210, dilution 1/4,000",600
same,Zone Size,"L1210; L1210, dilution 1/16,000",550
same,Zone Size,"L1210; L1210, dilution 1/64,000",300
